Data: paper PMC7997453 (Pharmaceuticals, 2021)
pKi: −log10 of the molar value. Read-outs that look alike come from different tables or passages of the source.

What was measured:
[1] = biological target: T1, CYP3A4 (Homo sapiens, UniProt P08684); experiment: Time-dependent inhibition (TDI) assay, testosterone-6β-hydroxylation, CYP3A5*3/*3 HLM; assay type: biochemical
Method: (§1) Testosterone-6β-hydroxylation was used to measure the activity of CYP3A4 and CYP3A5. […] With the corresponding double-reciprocal plot, the derived kinetic constants from the inactivation experiments were estimated.
(§2) Two-step incubation was performed to evaluate the TDI assay. […] After pre-incubation for 3 min at 37 °C in a shaking water bath, the enzymatic reaction was started upon adding NADPH (1 mM) with various pre-reaction time (0, 5, 10, 20, 30 min). For TDI on CYP3A5, NADPH (1 mM) was added to the incubation which contained CYP3A5*1/*3 HLM (0.5 mg/mL) and CYP3cide (1.2 μM) after being pre-warmed for 3 min. […] Next step, an aliquot (20 μL) of the primary pre-reaction mixture was transferred to 180 μL of the secondary incubation system which consisted of PBS (0.1 M), testosterone (200 μM) and NADPH (1 mM). The secondary reaction was incubated at 37 °C for 10 min and terminated by adding 400 μL ice-cold acetonitrile containing prednisolone as the internal standard (0.3150 μM for CYP3A5*3/*3 HLM incubation and 0.07875 μM for CYP3A5*1/*3 HLM incubation). […] The observed inactivation rate of the affected enzyme (kobs) was the negative slope of the linear regression. kinact and KI were calculated using Equation (1) by the double-reciprocal plot. I represents the concentration of the inhibitor. (1) kobs=kinact×I/[…]

[2] = biological target: T2, CYP3A5 (Homo sapiens, UniProt P20815); experiment: Time-dependent inhibition (TDI) assay, testosterone-6β-hydroxylation, CYP3A5*1/*3 HLM with CYP3cide; assay type: biochemical
Method: as §1, §2

[3] = tissue to plasma partition coefficients; conditions: In-house data
Source text: All PBPK simulations were constructed using the population-based ADME(absorption, distribution, metabolism, and excretion) simulator (version 13.1.1, Simcyp® Ltd., Certara, Sheffield, UK).

[4] = intrinsic clearance in human liver microsomes; assay type: in vitro ADME; conditions: In-house data, read-out: CLint,HLM
[5] = system: CYP3A; conditions: rat liver microsomes, cited from earlier work
[6] = design: method as in PMID 24195812; conditions: rats; oral dose of 0.024 mM/kg STA or SIA; cited from earlier work
[7] = ref supplement 1; cited from earlier work
[8] = ref supplement 2; cited from earlier work
[9] = design: method as in https://pubchem.ncbi.nlm.nih.gov/; conditions: ref https://pubchem.ncbi.nlm.nih.gov/; cited from earlier work
[10] = biological target: T1, CYP3A4; experiment: Reversible inhibition (RI) assay on tacrolimus metabolism, CYP3A5*3/*3 HLM
Method: (§3) The reactions were started with the addition of nicotinamide adenine dinucleotide phosphate (NADPH, 1 mM) and stopped 10 min later upon adding a double volume of ice-cold methanol. […] Reactions were terminated with the same method as the CYP3A4 group. All incubations were carried out in triplicate. […] Dixon plots were used to analyze the inhibitory type of RI assay and Ki value.

[11] = biological target: T2, CYP3A5; experiment: Reversible inhibition (RI) assay on tacrolimus metabolism, CYP3A5*1/*3 HLM with CYP3cide
Method: as §3

[12] = 2 μM SIA, pre-incubation 10 min
[13] = 2 μM SIA, pre-incubation 20 min
[14] = 2 μM SIA, pre-incubation 30 min
[15] = 4 μM SIA, pre-incubation 10 min
[16] = 4 μM SIA, pre-incubation 20 min
[17] = 4 μM SIA, pre-incubation 30 min
[18] = 8 μM SIA, pre-incubation 10 min
[19] = 8 μM SIA, pre-incubation 20 min
[20] = 8 μM SIA, pre-incubation 30 min
[21] = 16 μM SIA, pre-incubation 0 min
[22] = 16 μM SIA, pre-incubation 5 min
[23] = 16 μM SIA, pre-incubation 10 min
[24] = 16 μM SIA, pre-incubation 20 min
[25] = 16 μM SIA, pre-incubation 30 min

T2 sequence (P20815 whole entry): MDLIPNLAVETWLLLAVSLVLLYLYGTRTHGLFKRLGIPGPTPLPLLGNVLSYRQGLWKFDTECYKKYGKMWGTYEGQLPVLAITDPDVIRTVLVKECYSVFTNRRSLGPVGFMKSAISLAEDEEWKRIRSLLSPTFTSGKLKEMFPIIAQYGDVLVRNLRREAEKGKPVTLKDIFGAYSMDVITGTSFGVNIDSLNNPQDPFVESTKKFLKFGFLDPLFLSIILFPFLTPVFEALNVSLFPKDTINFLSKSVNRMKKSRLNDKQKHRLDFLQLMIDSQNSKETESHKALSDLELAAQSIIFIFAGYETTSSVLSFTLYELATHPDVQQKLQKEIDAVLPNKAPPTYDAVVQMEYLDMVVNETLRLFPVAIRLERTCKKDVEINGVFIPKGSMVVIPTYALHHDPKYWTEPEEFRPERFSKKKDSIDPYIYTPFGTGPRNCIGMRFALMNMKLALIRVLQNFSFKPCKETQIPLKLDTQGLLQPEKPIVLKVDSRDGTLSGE
T1 sequence (P08684 whole entry): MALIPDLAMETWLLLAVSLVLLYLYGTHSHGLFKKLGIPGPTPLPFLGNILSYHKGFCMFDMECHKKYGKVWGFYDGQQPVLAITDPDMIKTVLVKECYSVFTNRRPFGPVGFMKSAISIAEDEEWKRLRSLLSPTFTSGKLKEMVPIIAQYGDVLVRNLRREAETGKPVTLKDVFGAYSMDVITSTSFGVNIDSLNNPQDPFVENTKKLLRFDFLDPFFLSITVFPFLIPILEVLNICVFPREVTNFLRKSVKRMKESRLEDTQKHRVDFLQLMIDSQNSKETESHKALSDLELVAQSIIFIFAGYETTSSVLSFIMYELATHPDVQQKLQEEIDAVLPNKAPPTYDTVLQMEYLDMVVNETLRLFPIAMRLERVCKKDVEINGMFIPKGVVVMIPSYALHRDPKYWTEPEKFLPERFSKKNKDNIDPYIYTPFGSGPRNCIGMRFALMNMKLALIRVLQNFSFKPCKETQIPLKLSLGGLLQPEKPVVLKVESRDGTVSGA

## COc1cc2c(c(OC)c1OC)-c1c(cc(OC)c(OC)c1OC)C[C@H](C)[C@H](C)C2 [SIA, schisandrin A]
[1]
  TDI profile on CYP3A4 (in words): slight TDI
[1]; 2 μM SIA, pre-incubation 0 min
  log of percentage of control activity, Figure 4A, Mean: 4.6052
[1]; 2 μM SIA, pre-incubation 5 min
  log of percentage of control activity, Figure 4A, Mean: 4.5754
[1]; [12]
  log of percentage of control activity, Figure 4A, Mean: 4.5165
[1]; [13]
  log of percentage of control activity, Figure 4A, Mean: 4.4602
[1]; [14]
  log of percentage of control activity, Figure 4A, Mean: 4.3520
[1]; 4 μM SIA, pre-incubation 0 min
  log of percentage of control activity, Figure 4A, Mean: 4.6052
[1]; 4 μM SIA, pre-incubation 5 min
  log of percentage of control activity, Figure 4A, Mean: 4.5505
[1]; [15]
  log of percentage of control activity, Figure 4A, Mean: 4.4420
[1]; [16]
  log of percentage of control activity, Figure 4A, Mean: 4.3925
[1]; [17]
  log of percentage of control activity, Figure 4A, Mean: 4.2490
[1]; 8 μM SIA, pre-incubation 0 min
  log of percentage of control activity, Figure 4A, Mean: 4.6029
[1]; 8 μM SIA, pre-incubation 5 min
  log of percentage of control activity, Figure 4A, Mean: 4.5164
[1]; [18]
  log of percentage of control activity, Figure 4A, Mean: 4.3979
[1]; [19]
  log of percentage of control activity, Figure 4A, Mean: 4.2781
[1]; [20]
  log of percentage of control activity, Figure 4A, Mean: 4.1876
[1]; [21]
  log of percentage of control activity, Figure 4A, Mean: 4.6052
[1]; [22]
  log of percentage of control activity, Figure 4A, Mean: 4.4518
[1]; [23]
  log of percentage of control activity, Figure 4A, Mean: 4.3776
[1]; [24]
  log of percentage of control activity, Figure 4A, Mean: 4.2397
[1]; [25]
  log of percentage of control activity, Figure 4A, Mean: 4.0738
[1]; CYP3A4
  kinact/KI: 125 M⁻¹ s⁻¹
[1]; CYP3A4, testosterone-6β-hydroxylation
  KI: 2.54 µM
[1]; human, CYP3A5*3/*3 human liver microsomes, probe testosterone (200 μM), CYP3A4, testosterone-6β-hydroxylation
  kinact: 0.000317 s⁻¹
[2]
  TDI profile on CYP3A5 (in words): slight TDI
[2]; 2 μM SIA, pre-incubation 0 min
  log of percentage of control activity, Figure 4C, Mean: 4.6052
[2]; 2 μM SIA, pre-incubation 5 min
  log of percentage of control activity, Figure 4C, Mean: 4.5539
[2]; [12]
  log of percentage of control activity, Figure 4C, Mean: 4.5218
[2]; [13]
  log of percentage of control activity, Figure 4C, Mean: 4.4427
[2]; [14]
  log of percentage of control activity, Figure 4C, Mean: 4.3791
[2]; 4 μM SIA, pre-incubation 0 min
  log of percentage of control activity, Figure 4C, Mean: 4.6052
[2]; 4 μM SIA, pre-incubation 5 min
  log of percentage of control activity, Figure 4C, Mean: 4.4998
[2]; [15]
  log of percentage of control activity, Figure 4C, Mean: 4.5031
[2]; [16]
  log of percentage of control activity, Figure 4C, Mean: 4.4869
[2]; [17]
  log of percentage of control activity, Figure 4C, Mean: 4.2859
[2]; 8 μM SIA, pre-incubation 0 min
  log of percentage of control activity, Figure 4C, Mean: 4.6052
[2]; 8 μM SIA, pre-incubation 5 min
  log of percentage of control activity, Figure 4C, Mean: 4.4632
[2]; [18]
  log of percentage of control activity, Figure 4C, Mean: 4.4150
[2]; [19]
  log of percentage of control activity, Figure 4C, Mean: 4.4028
[2]; [20]
  log of percentage of control activity, Figure 4C, Mean: 4.2282
[2]; [21]
  log of percentage of control activity, Figure 4C, Mean: 4.5539
[2]; [22]
  log of percentage of control activity, Figure 4C, Mean: 4.4523
[2]; [23]
  log of percentage of control activity, Figure 4C, Mean: 4.3701
[2]; [24]
  log of percentage of control activity, Figure 4C, Mean: 4.2585
[2]; [25]
  log of percentage of control activity, Figure 4C, Mean: 4.1607
[2]; CYP3A5
  kinact/KI: 113 M⁻¹ s⁻¹
[2]; CYP3A5, testosterone-6β-hydroxylation
  KI: 2.07 µM
[2]; human, CYP3A5*1/*3 human liver microsomes with CYP3cide, probe testosterone (200 μM), with CYP3cide ([…]), CYP3A5, testosterone-6β-hydroxylation
  kinact: 0.000233 s⁻¹
[3]; adipose, read-out: Kp Adipose
  Kp: 36.4
[3]; brain, read-out: Kp Brain
  Kp: 7.4
[3]; gut, read-out: Kp Gut
  Kp: 210
[3]; heart, read-out: Kp Heart
  Kp: 39.5
[3]; kidney, read-out: Kp Kidney
  Kp: 5.9
[3]; liver, read-out: Kp Liver
  Kp: 3.9
[3]; lung, read-out: Kp Lung
  Kp: 19
[3]; spleen, read-out: Kp Spleen
  Kp: 7.6
[4]
  microsomal CLint: 130 µL/min/mg
[5]; midazolam 1′-hydroxylation
  pKi: 5.23
[5]; midazolam 4-hydroxylation
  pKi: 5.32
[6]
  increase of systemic exposure of tacrolimus: 2.37 fold
[7]
  Log Po:w: 5.265
[8]
  fu plasma: 0.0334
[9]
  HBD: 0
  PSA: 55.38 Å2
[10]; 2.4 μM SIA, 0.2 μM tacrolimus
  Dixon plot data point, Figure 2C, Mean: 20.0000
[10]; 2.4 μM SIA, 0.4 μM tacrolimus
  Dixon plot data point, Figure 2C, Mean: 10.0000
[10]; 2.4 μM SIA, 0.8 μM tacrolimus
  Dixon plot data point, Figure 2C, Mean: 3.3452
[10]; 2.4 μM SIA, 1.6 μM tacrolimus
  Dixon plot data point, Figure 2C, Mean: 1.4662
[10]; 7.2 μM SIA, 0.4 μM tacrolimus
  Dixon plot data point, Figure 2C, Mean: 10.0565
[10]; 7.2 μM SIA, 1.6 μM tacrolimus
  Dixon plot data point, Figure 2C, Mean: 1.7598
[10]; 12 μM SIA, 0.2 μM tacrolimus
  Dixon plot data point, Figure 2C, Mean: 20.3445
[10]; 12 μM SIA, 0.4 μM tacrolimus
  Dixon plot data point, Figure 2C, Mean: 9.8175
[10]; 12 μM SIA, 0.8 μM tacrolimus
  Dixon plot data point, Figure 2C, Mean: 4.5304
[10]; 12 μM SIA, 1.6 μM tacrolimus
  Dixon plot data point, Figure 2C, Mean: 1.6431
[10]; CYP3A5*3/*3 HLM, substrate tacrolimus
  reversible inhibition on CYP3A4 (in words): little reversible inhibition
[11]
  pKi: 5.06
[11]; 2.4 μM SIA, 0.2 μM tacrolimus
  Dixon plot data point, Figure 2D, Mean: 32.0000
[11]; 2.4 μM SIA, 0.4 μM tacrolimus
  Dixon plot data point, Figure 2D, Mean: 17.6167
[11]; 2.4 μM SIA, 0.8 μM tacrolimus
  Dixon plot data point, Figure 2D, Mean: 9.2000
[11]; 2.4 μM SIA, 1.6 μM tacrolimus
  Dixon plot data point, Figure 2D, Mean: 6.2790
[11]; 7.2 μM SIA, 0.4 μM tacrolimus
  Dixon plot data point, Figure 2D, Mean: 21.6176
[11]; 7.2 μM SIA, 1.6 μM tacrolimus
  Dixon plot data point, Figure 2D, Mean: 6.9243
[11]; 12 μM SIA, 0.2 μM tacrolimus
  Dixon plot data point, Figure 2D, Mean: 60.0000
[11]; 12 μM SIA, 0.4 μM tacrolimus
  Dixon plot data point, Figure 2D, Mean: 30.1990
[11]; 12 μM SIA, 0.8 μM tacrolimus
  Dixon plot data point, Figure 2D, Mean: 15.0500
[11]; 12 μM SIA, 1.6 μM tacrolimus
  Dixon plot data point, Figure 2D, Mean: 7.2381
